Data taken from patent US20060069110A1, “Substituted heterocyclic compounds and methods of use” (priority 2004, published 2006).

System: THP1 cells (LPS induced TNF release)
Assay: Lipopolysaccharide-Activated THP1 Cell TNF Production Assay
Format: cell-based
Conditions: Homo sapiens, THP-1, 3 h, read-out: IC50 values in the THP1 cell assay (LPS induced TNF release)
Summary of the method: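 THP1 cells at 1E6/mL were treated with 3-fold serial compound dilutions and LPS (1 μg/mL stock) for 3 h at 37 °C. Secreted TNF-α was quantified by electrochemiluminescent sandwich immunoassay. Percent of DMSO control versus concentration was fitted to a 4-parameter equation.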

Q: Which IC50 does the source give for Cc1nccn1-c1cccc(C[C@H](C)Nc2nccc(N(C)c3ccnc(-c4ccccc4)n3)n2)c1 [Example 117, N^4-Methyl-N^2-((S)-1-(3-(2-methyl-1H-imidazol-1-yl)phenyl)propan-2-yl)-N^4-(2-phenylpyrimidin-4-yl)pyrimidine-2,4-diamine] here?
A: ≤ 20 µM

Same assay, conditions: Homo sapiens, THP-1; THP1 cells, bacterial LPS, secreted TNF-α after 3 h at 37° C.; read-out: IC50 values in the THP1 cell assay (LPS induced TNF release)

Q: Which IC50 does the source give for CN(c1ccnc(NCC(c2cccnc2)N2CCOCC2)n1)c1ccnc(-c2ccccc2)n1 (stereo not drawn) [Example 108, N^4-Methyl-N^2-(2-morpholino-2-(pyridin-3-yl)ethyl)-N^4-(2-phenylpyrimidin-4-yl)pyrimidine-2,4-diamine] here?
A: ≤ 20 µM

Q: Which IC50 does the source give for CN(c1ccnc(NCC(c2cccnc2)N(C)C)n1)c1ccnc(-c2ccccc2)n1 (stereo not drawn) [Example 109, N^2-(2-(Dimethylamino)-2-(pyridin-3-yl)ethyl)-N^4-methyl-N^4-(2-phenylpyrimidin-4-yl)pyrimidine-2,4-diamine] here?
A: ≤ 20 µM

Q: CN(c1ccnc(NC[C@H](O)c2ccccc2)n1)c1ccnc(-c2ccccc2)n1 [Example 110, (R)-2-(4-(Methyl(2-phenylpyrimidin-4-yl)amino)pyrimidin-2-ylamino)-1-phenyl-ethanol] was tested. Which IC50 did it give?
A: ≤ 20 µM

Q: Which IC50 does the source give for CN(c1ccnc(NC[C@@H](O)c2ccccc2)n1)c1ccnc(-c2ccccc2)n1 [Example 111, (S)-2-(4-(Methyl(2-phenylpyrimidin-4-yl)amino)pyrimidin-2-ylamino)-1-phenyl-ethanol] here?
A: ≤ 20 µM

Q: Which IC50 does the source give for CN(c1ccnc(NC[C@H](N)c2ccccc2)n1)c1ccnc(-c2ccccc2)n1 [Example 112] here?
A: ≤ 20 µM

Q: For CN(c1ccnc(NCC(O)c2ccccn2)n1)c1ccnc(-c2ccccc2)n1 (stereo not drawn) [Example 113], which IC50 is on record?
A: ≤ 20 µM

Q: For CN(c1ccnc(NCCc2ccc3c(n2)NCCC3)n1)c1ccnc(-c2ccccc2)n1 [Example 114, N^4-Methyl-N^4-(2-phenylpyrimidin-4-yl)-N^2-(2-(5,6,7,8-tetrahydro-1,8-naphthyridin-2-yl)ethyl)pyrimidine-2,4-diamine], which IC50 is on record?
A: ≤ 20 µM

Q: With CC(=O)N1CCC(CNc2nccc(N(C)c3ccnc(-c4ccccc4)n3)n2)CC1 [Example 115, 1-(4-((4-(Methyl(2-phenylpyrimidin-4-yl)amino)pyrimidin-2-ylamino)methyl)-piperidin-1-yl)ethanone] as the compound, how does the IC50 read?
A: ≤ 20 µM

Q: With C[C@@H](Cc1cccc(-n2ccnc2)c1)Nc1nccc(N(C)c2ccnc(-c3ccccc3)n2)n1 [Example 116, N^2-((S)-1-(3-(1 H-Imidazol-1-yl)phenyl)propan-2-yl)-N^4-methyl-N^4-(2-phenyl-pyrimidin-4-yl)pyrimidine-2,4-diamine] as the compound, how does the IC50 read?
A: ≤ 20 µM

Q: CN(c1ccnc(NCCc2cccc(-c3ccccn3)c2)n1)c1ccnc(-c2ccccc2)n1 [Example 118, N^2-(3-(Pyridin-2-yl)phenethyl)-N^4-methyl-N^4-(2-phenylpyrimidin-4-yl)pyrimidine-2,4-diamine] was tested. Which IC50 did it give?
A: ≤ 20 µM

Q: Which IC50 does the source give for CC(Cc1cccc(CO)c1)Nc1nccc(N(C)c2cc(N)nc(-c3ccccc3)n2)n1 (stereo not drawn) [Example 119, (3-(2-(4-((6-Amino-2-phenylpyrimidin-4-yl)(methyl)amino)pyrimidin-2-ylamino) -propyl)phenyl)methanol] here?
A: ≤ 20 µM

Q: Which IC50 does the source give for CN(c1ccnc(NCCc2ccccn2)n1)c1cc(O)nc(-c2ccccc2)n1 [Example 120, 6-(Methyl(2-(2-(pyridin-2-yl)ethylamino)pyrimidin-4-yl)amino)-2-phenylpyrimidin-4-ol] here?
A: ≤ 20 µM

Q: For COc1nc(-c2ccccc2)nc(N(C)c2ccnc(N[C@@H](C)Cc3cccc(CN)c3)n2)n1 [Example 121, (S)-N^2-(1-(3-(Aminomethyl)phenyl)propan-2-yl)-N^4-(4-methoxy-6-phenyl-1,3,5-triazin-2-yl)-N^4-methylpyrimidine-2,4-diamine], which IC50 is on record?
A: ≤ 20 µM

Q: With C[C@@H](Cc1cccc(CN)c1)Nc1nccc(N(C)c2cncc(-c3ccccc3)n2)n1 [Example 122, (S)-N^2-(1-(3-(Aminomethyl)phenyl)propan-2-yl)-N^4-methyl-N^4-(6-phenylpyrazin-2-yl)pyrimidine-2,4-diamine] as the compound, how does the IC50 read?
A: ≤ 20 µM
